Reference: PubChem BioAssay (NCI)
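These data come from cells grown in 96-well plates and exposed to compound for 48 hours at five concentrations. GI50 = concentration required for 50% inhibition of growth. TGI: total growth inhibition.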

Key:
Test in all cases: NCI anticancer screen, dose series, 48 h
[1] = test system: HOP-92 NSCLC
[2] = test system: NCI-H460 lung
[3] = test system: SF-268 CNS
[4] = test system: KM12 colon
[5] = test system: SF-539 CNS
[6] = test system: 786-0 renal
[7] = test system: BT-549 breast
[8] = test system: PC-3 prostate

Row | Structure (SMILES) | GI50 [1] [µM] | TGI [1] [µM] | GI50 [2] [µM] | TGI [2] [µM] | GI50 [3] [µM] | TGI [3] [µM] | GI50 [4] [µM] | TGI [4] [µM] | GI50 [5] [µM] | TGI [5] [µM] | GI50 [6] [µM] | TGI [6] [µM] | GI50 [7] [µM] | TGI [7] [µM] | GI50 [8] [µM] | TGI [8] [µM]
1 | COc1cc2ncnc(Nc3cccc(Cl)c3F)c2cc1OC(=O)N1CCN(C)C[C@H]1C | 14.2 | > 54.8 | > 48.8 | > 82.4 | > 37.1 | > 75.3 | > 50.5 | > 88.5 | > 40.4 | > 58.9 | > 34.2 | > 53.3 | > 42.2 | > 67.2 | 35.3 | > 93.3
2 | C[C@@H](NC(=O)/C(C#N)=C/c1ccc([N+](=O)[O-])cc1)c1ccccc1 | 1.89 | 5.96 | 2.58 | 6.95 | 3.69 | 13.4 | 2.07 | 4.18 | 1.7 | 3.37 | 2.54 | 8.84 | 1.75 | 3.55 | 2.34 | 6.65
3 | C#CCN(Cc1nc2cc(C(F)(F)F)ccc2nc1-c1ccccc1)c1ccc(C)cc1 | 31.7 | > 84.8 | 3.93 | > 100 | 17 | > 100 | 9.94 | > 24.6 | 24.3 | > 100 | 15.5 | > 42.8 | 22.2 | 69.9 | > 62.6 | > 100
4 | Cc1ccc2c(c1)c(Sc1ccc(C(=O)NO)cc1)c1n2CN(C)CC1 | 2.1 | 6.37 | 2.05 | 6.16 | 1.6 | 3.7 | 1.71 | 3.5 | 1.4 | 2.92 | 2.82 | 8.53 | 1.8 | 4.57 | 1.5 | 3.77
5 | N=C(N)SCc1c2ccccc2c(CSC(=N)N)c2ccccc12 | 2.8 | 19.9 | 1.08 | 15.3 | 4.32 | 26 | 10.3 | 23.4 | 5.11 | 19.4 | 9.35 | 24 | 16.9 | 58.3 | 10.3 | 23.9
6 | COc1ccc2c(O)c(/C=C3\N=Nc4ccccc43)oc2c1C[C@@H]1CCNC[C@H]1F | 13.3 | 29.5 | 2.02 | 4.1 | 3.13 | 14.1 | 0.695 | 12 | 1.6 | 3.06 | 1.7 | 3.22 | 12.8 | 26.1 | 3.26 | 15.4
7 | CC(C)(C)[Si](C)(C)OC1[C@@H](O[Si](C)(C)C(C)(C)C)[C@@H](CNC(=O)NC(=O)CF)O[C@H]1n1cnc2c(NC(=O)Nc3ccccc3)ncnc21 (stereo partly specified) | 6.48 | 19.8 | 8.32 | > 50 | 12.6 | > 50 | 9.36 | 38.3 | 14.5 | > 50 | 7.46 | 15.9 | 12.2 | 42.5 | 2.19 | > 50
8 | CCOC(=O)c1cc(C(=O)c2cc(OC)c(OC)c(OC)c2)n2c1ccc1ccccc12 | 1.43 | > 100 | 0.313 | > 100 | 1.94 | > 100 | 0.26 | > 100 | 0.216 | 0.723 | 0.693 | > 100 | 1.08 | > 100 | 0.294 | > 100
9 | CC(=O)Nc1c(I)c(NC(C)=O)c(I)c(C(=O)O)c1I | > 100 | > 100 | > 100 | > 100 | – | – | > 100 | > 100 | – | – | > 100 | > 100 | > 100 | > 100 | > 100 | > 100
10 | Cc1ccc(NC(=O)c2cc3ccccc3c(N=Nc3cc(S(=O)(=O)O)ccc3O)c2O)c(C)c1 | – | > 100 | – | – | – | > 100 | – | 53.9 | – | – | – | > 100 | – | > 100 | – | > 100
11 | COc1ccc2c(c1)CC[C@@H]1[C@@H]2CC[C@]2(C)c3c(cc(C(=O)O)c4sccc34)C[C@@H]12 | – | – | 11.6 | 37.7 | 17.6 | 48.3 | 10.6 | 23.5 | 16.7 | 35.1 | 16.9 | 32.5 | 18.7 | 38.8 | 10.5 | 25.1
12 | COc1ccc2cc(C(=O)/C=C/c3ccc(N(C)C)cc3)ccc2c1 | > 100 | > 100 | 62.5 | > 100 | 42.6 | > 100 | > 100 | > 100 | – | – | > 100 | > 100 | 39.5 | > 100 | > 100 | > 100
13 | COc1ccc(Sc2nc3cc(N)cc(N)c3nc2-c2ccccc2)cc1 | – | – | 20 | > 100 | > 100 | > 100 | 28.4 | > 100 | 10 | > 100 | 52.3 | > 100 | – | – | 6.39 | > 100
14 | COC(=O)C1=CO[C@@H](OC2OC(CO)C(O)C(O)C2O)[C@H]2[C@@H](C)[C@@H](O)[C@@H](O)[C@@H]12 (stereo partly specified) | – | > 100 | – | – | – | > 100 | – | > 100 | – | > 100 | – | > 100 | – | > 100 | – | > 100
15 | N/C(=N/N=C/c1ccccc1)N/N=C\c1ccccc1 | 2.52 | 42.2 | 3.89 | > 100 | 9.66 | > 100 | 2.76 | > 100 | – | – | 5.2 | 43.9 | 7.2 | 46.4 | 6.21 | > 100
16 | NC(N)=NC(N)=Nc1cnccn1 | – | > 100 | – | – | – | – | – | > 100 | – | > 100 | – | > 100 | – | – | – | > 100
17 | Clc1ccc(Nc2ccnc(N3CCN(c4ccnc5cc(Cl)ccc45)CC3)n2)cc1 | 0.935 | 4.18 | 2.33 | 6.76 | 3.33 | 16.2 | 3.04 | 11.5 | – | – | 2.38 | 7.88 | 2.13 | 6.92 | 1.98 | 13.3
